Read-outs that look alike come from different tables or passages of the source.
Columns and labels:
[1] = test system: Aedes aegypti; experiment: In vitro K&D (Klun & Debboun) assay, mosquitoes biting through treated cloth over membrane-blood reservoir; type: in vivo
Procedure: Controlling efficacy was tested against the yellow fever mosquito, A. aegypti Rockefeller strain.
Observations of controlling efficacy were made on host-seeking females of uniform age, 5 to 10 days post-eclosion from pupae. Tested hungry females had access to 10% sugar solution but were not blood-fed.
The controlling efficacy in vitro was measured using the Klun & Debboun (K&D) assay test module [Klun J A, Kramer M, Debboun M. A new in vitro bioassay system for discovery of novel human-use mosquito controlling compounds. J Am Mosq Control Assoc. 2005; 21:64-70], which is an adaptation of the K&D module [Klun J A, Debboun M. A new module for quantitative evaluation of controlling efficacy using human subjects. J Med Entomol. 2000; 37:177-81.], initially developed and used for quantitative measurement of the efficacy of mosquito controlling compounds on human subjects.
In the in vitro assay the module is coupled with a membrane-blood reservoir, consisting of a unit with six wells that are filled with 7 mL defibrinated pig blood maintained at a constant temperature of 38° C. and covered with a bovine collagen film (Devro plc, Edicol-MX400 CLR 100M REEL) as the membrane. Over the membrane a piece of cotton cloth (Baptist Roh, 100% cotton, weight: 69.0 g/m^2, thread density: warp and woof 26.5×26.5 thread/cm, Modessa Basel) was placed after being treated with 80 μL of the tested stimuli.
The K&D unit, containing five mosquitoes in each cell was finally placed on top of the treated cloth. Then the numbers of mosquitoes biting in each cell within a 3-min exposure were recorded. This procedure was repeated until 6 replicate exposures and observations (i.e. 30 mosquitoes) were made.

[2] = test system: Aedes aegypti; experiment: In vivo arm in cage test on forearm of human volunteers; conditions: for % of repellency MEAN: 20% in ethanol on forearm, three volunteers
Procedure: The Arm in the box method was adapted from the WHO Guidelines for efficacy testing of mosquito repellents for human skin (WHO/CDS/NTD/WHOPES/2009.4). The readiness of 100 hungry female mosquitoes A. aegypti to probe is assessed by inserting an untreated arm into the cage (40×40×40 cm) for 30 seconds (negative control) three times (once at the beginning, once at the fourth hour and once at the eighth hour), to determine probing activity.
Then, the product is applied onto the skin of the forearm of a human volunteer (1 ml per 600 cm^2) and after 5 minutes, this arm is inserted into the cage and exposed for 3 minutes. The assay take place in temperature (27±2° C.) and humidity (80±10% RH) regulated room on three different volunteers.

[3] = test system: Ixodes ricinus; experiment: In vitro Warm Plate Assay for ticks; type: in vivo
In short: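 Repellency against last-stage Ixodes ricinus nymphs in an in vitro warm plate assay, compounds diluted in ethanol at 0.4 and 10 mg/mL, 0.0016% to 1%, or 20% (w/w). Ticks walking down or falling from the treated plate scored as affected, walking up as unaffected; groups of 12 ticks, n=2-5.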

[4] = test system: Aedes aegypti; experiment: In vivo arm in cage test on forearm of human volunteers; conditions: 20% in ethanol on forearm; 0.05 h post application; three volunteers

Q: Which “% repulsion” value ([1]; 0.0008% in ethanol) does the source give for `Cc1ccc2c(c1)CC(C)(CO)C2` (centres unmarked) [ingredient #2, (2,5-dimethyl-2,3-dihydro-1H-inden-2yl)methanol] here?
A: The value was 21.5%.

Q: What about the “% repulsion” value ([1]; 0.004% in ethanol) of the same compound?
A: The value was 25.3%.

Q: What about the “% repulsion” value ([1]; 0.02% in ethanol) of the same compound?
A: The value was 33.8%.

Q: What about the “% repulsion” value ([1]; 0.1% in ethanol) of the same compound?
A: The value was 57.1%.

Q: What about the “% repulsion” value ([1]; 0.5% in ethanol) of the same compound?
A: Its value is 84.6%.

Q: And the “% repulsion” value ([1]; 2.5% in ethanol)?
A: The value was 92.3%.

Q: What about the “concentration from which a significant repellent effect is shown” value ([1]; on its own, in ethanol) of the same compound?
A: Its value is no less than 0.1%.

Q: What about the “% of repellency MEAN” value ([2]; 1 h post application) of the same compound?
A: The value was 98.83%.

Q: And the “% of repellency MEAN” value ([2]; 2 h post application)?
A: The value was 97.79%.

Q: What about the “% of repellency MEAN” value ([2]; 3 h post application) of the same compound?
A: Its value is 96.72%.

Q: What about the “% of repellency MEAN” value ([2]; 4 h post application) of the same compound?
A: The value was 94.71%.

Q: What about the “% of repellency MEAN” value ([2]; 5 h post application) of the same compound?
A: Its value is 94.05%.

Q: And the “% of repellency MEAN” value ([2]; 6 h post application)?
A: The value was 91.99%.

Q: What about the “% of repellency MEAN” value ([2]; 7 h post application) of the same compound?
A: The value was 90.91%.

Q: What about the “% of repellency MEAN” value ([2]; 8 h post application) of the same compound?
A: Its value is 84.67%.

Q: And the “reduction of the number of mosquitoes landing on the volunteers' arm” value ([2]; 20% in ethanol, for up to 7 h)?
A: The value was “more than 90%”.

Q: And the “percentage of ticks being affected” value ([3]; 0.00032% (Table 9))?
A: The value was 0%.

Q: What about the “MEAN % affected (ticks)” value ([3]; 0.4 mg/mL in ethanol (Table 5)) of the same compound?
A: The value was 21%.

Q: And the “percentage of ticks being affected” value ([3]; 0.00071% (Table 9))?
A: The value was 15%.

Q: And the “percentage of ticks being affected” value ([3]; 0.0016% (Table 9))?
A: Its value is 17%.

Q: What about the “percentage of ticks being affected” value ([3]; 0.00357% (Table 9)) of the same compound?
A: Its value is 0%.

Q: And the “percentage of ticks being affected” value ([3]; 0.0053% (Table 9))?
A: The value was 15%.

Q: What about the “percentage of ticks being affected” value ([3]; 0.008% (Table 9)) of the same compound?
A: Its value is 0%.

Q: What about the “MEAN % affected (ticks)” value ([3]; 10 mg/mL in ethanol (Table 5)) of the same compound?
A: The value was 92%.

Q: And the “percentage of ticks being affected” value ([3]; 0.0119% (Table 9))?
A: The value was 8%.

Q: And the “percentage of ticks being affected” value ([3]; 0.0178% (Table 9))?
A: The value was 17%.

Q: What about the “percentage of ticks being affected” value ([3]; 0.0267% (Table 9)) of the same compound?
A: Its value is 38%.

Q: What about the “percentage of ticks being affected” value ([3]; 0.04% (Table 9)) of the same compound?
A: Its value is 0%.

Q: What about the “percentage of ticks being affected” value ([3]; 0.0598% (Table 9)) of the same compound?
A: Its value is 31%.

Q: And the “percentage of ticks being affected” value ([3]; 0.089% (Table 9))?
A: The value was 29%.

Q: And the “percentage of ticks being affected” value ([3]; 0.2% (Table 9))?
A: The value was 85%.

Q: And the “percentage of ticks being affected” value ([3]; 0.447% (Table 9))?
A: The value was 100%.

Q: What about the “ticks affected / not affected over 12 (in words)” value ([3]; 1%) of the same compound?
A: The value was “only one tick over 12 was not affected”.

Q: What about the “percentage of ticks being affected” value ([3]; 1% (Table 9)) of the same compound?
A: Its value is 71%.

Q: And the “percentage of ticks affected overtime” value ([3]; 20% (w/w) in ethanol, 0.25 h post-application)?
A: Its value is 100%.

Q: What about the “percentage of ticks affected overtime” value ([3]; 20% (w/w) in ethanol, 0.5 h post-application) of the same compound?
A: The value was 83%.

Q: What about the “percentage of ticks affected overtime” value ([3]; 20% (w/w) in ethanol, 1 h post-application) of the same compound?
A: Its value is 100%.

Q: And the “percentage of ticks affected overtime” value ([3]; 20% (w/w) in ethanol, 2 h post-application)?
A: The value was 100%.

Q: What about the “percentage of ticks affected overtime” value ([3]; 20% (w/w) in ethanol, 4 h post-application) of the same compound?
A: Its value is 0%.

Q: What about the “percentage of ticks affected overtime” value ([3]; 20% (w/w) in ethanol, 6 h post-application) of the same compound?
A: The value was 8%.

Q: And the “ticks' repellency overtime (in words)” value ([3]; 20% (w/w) in ethanol, Table 14)?
A: Its value is “better ticks' repellency than the known repellent”.

Q: What about the pest or weed control at 0.0016 % ([3]; Ixodes ricinus, 0.0016% (Table 11), read-out: percentage of ticks affected on the Warm Plate) of the same compound?
A: Its pest or weed control at 0.0016 % is 8%.

Q: And the pest or weed control at 0.0016 % ([3]; Ixodes ricinus, 0.0016% in ethanol (Table 12), read-out: percentage of ticks affected on the Warm Plate)?
A: Its pest or weed control at 0.0016 % is 17%.

Q: And the pest or weed control at 0.0053 % ([3]; Ixodes ricinus, 0.0053% in ethanol (Table 12), read-out: percentage of ticks affected on the Warm Plate)?
A: The pest or weed control at 0.0053 % was 15%.

Q: And the pest or weed control at 0.008 % ([3]; Ixodes ricinus, 0.008% in ethanol (Table 12), read-out: percentage of ticks affected on the Warm Plate)?
A: Its pest or weed control at 0.008 % is 0%.

Q: And the pest or weed control at 0.0119 % ([3]; Ixodes ricinus, 0.0119% in ethanol (Table 12), read-out: percentage of ticks affected on the Warm Plate)?
A: Its pest or weed control at 0.0119 % is 8%.

Q: And the pest or weed control at 0.0178 % ([3]; Ixodes ricinus, 0.0178% in ethanol (Table 12), read-out: percentage of ticks affected on the Warm Plate)?
A: The pest or weed control at 0.0178 % was 17%.

Q: And the pest or weed control at 0.0267 % ([3]; Ixodes ricinus, 0.0267% in ethanol (Table 12), read-out: percentage of ticks affected on the Warm Plate)?
A: The pest or weed control at 0.0267 % was 38%.

Q: What about the pest or weed control at 0.04 % ([3]; Ixodes ricinus, 0.04% (Table 11), read-out: percentage of ticks affected on the Warm Plate) of the same compound?
A: The pest or weed control at 0.04 % was 0%.

Q: What about the pest or weed control at 0.04 % ([3]; Ixodes ricinus, 0.04% in ethanol (Table 12), read-out: percentage of ticks affected on the Warm Plate) of the same compound?
A: Its pest or weed control at 0.04 % is 0%.

Q: And the pest or weed control at 0.0598 % ([3]; Ixodes ricinus, 0.0598% in ethanol (Table 12), read-out: percentage of ticks affected on the Warm Plate)?
A: Its pest or weed control at 0.0598 % is 31%.

Q: What about the pest or weed control at 0.089 % ([3]; Ixodes ricinus, 0.089% in ethanol (Table 12), read-out: percentage of ticks affected on the Warm Plate) of the same compound?
A: Its pest or weed control at 0.089 % is 29%.

Q: What about the pest or weed control at 0.2 % ([3]; Ixodes ricinus, 0.2% in ethanol (Table 12), read-out: percentage of ticks affected on the Warm Plate) of the same compound?
A: The pest or weed control at 0.2 % was 85%.

Q: What about the pest or weed control at 0.447 % ([3]; Ixodes ricinus, 0.447% in ethanol (Table 12), read-out: percentage of ticks affected on the Warm Plate) of the same compound?
A: Its pest or weed control at 0.447 % is 100%.

Q: What about the pest or weed control at 1 % ([3]; Ixodes ricinus, 1% (Table 11), read-out: percentage of ticks affected on the Warm Plate) of the same compound?
A: The pest or weed control at 1 % was 92%.

Q: And the pest or weed control at 1 % ([3]; Ixodes ricinus, 1% in ethanol (Table 12), read-out: percentage of ticks affected on the Warm Plate)?
A: Its pest or weed control at 1 % is 71%.

Q: What about the “threshold concentration to be efficient to repel the ticks” value ([3]; Table 9) of the same compound?
A: Its value is “above 0.2%”.

Q: And the ticks affected ([3]; dose of 0.89%)?
A: The ticks affected was 29%.

Q: What about the “% of repellency MEAN” value [4] of the same compound?
A: The value was 99.1%.

— patent US20260068882A1, “ARTHROPOD CONTROLLING COMPOSITION” (Firmenich SA, priority 2019, published 2026)
